Experimental data taken from patent US20040039211A1, “Tetrapyrroles” (DUKE UNIVERSITY AND NATIONAL JEWISH MEDICAL AND RESEARCH …, priority 2000, published 2004).
Marks after values point to notes of the source that are not given here.

Key:
[1] = Mn(III)/Mn(II) couple; aqueous solution (pH 7.8, 0.1 M NaCl); Ref 4; cited from earlier work
[2] = Cyclic voltammetry, metal-centered redox potential; format: physicochemical; settings: Mn(III)/Mn(II) couple; 90/10 (v/v) methanol/aqueous solution, pH* 7.9
Procedure: Manganese(III) Salen. The compound was prepared by the published procedure (Boucher, J. lnorg. Nucl. Chem. 36:531 (1974)). The uv/vis in water: ε235=3.70×10^4 cm^−1 M^−1, ε279=1.70×10^4 cm^−1 M^−1, ε397=4.60×10^3 cm^−M^−1. The elemental analysis: Anal. Calcd for Mn^IIIsalenCl, C16H14N2O2MnCl: C, 53.88; H, 3.96; N; 7.85. Found: C, 54.02; H, 4.06; N, 7.85. […] Based on the E1/2 of Mn^IIITM-2-PyP^5+, ferrocenemethanol and of K3Fe(CN)6 in water and methanol, the redox potential of Mn^III salen^+ in water was calculated to be E1/2=−0.13 V vs NHE.
Electrochemistry of the Manganese(III) Biliverdin Dimethylester. Measurements were made using a CH Instruments model 600 voltammetric analyzer as described previously(Batinic-Haberle et al, Inorg. Chem. 38:4011 (1999)). A three-electrode system in a small volume (0.5-3.0 mL), with a 3 mm diameter glassy carbon button working electrode (Bioanalytical Systems), Ag/AgCl reference electrode (3 M NaCl, Bioanalytical Systems), and a Pt wire (0.5 mm) as auxiliary electrode, were used. The cyclic votammetry was performed on 0.5 mM (per manganese) methanol/aqueous (90/10, v/v) solutions of the compounds investigated. The ionic strength was kept at 0.10 M (NaCl), and 0.05 M tris buffer was used for pH^* adjustment. For calibration purposes, compounds of different hydrophilicities, […], (Kolthof et al, J. Phys. Chem. 39:945 (1935)) ferrocenemethanol and Mn^IIITM-2-PyP^5+ were studied in both aqueous and methanol/aqueous (90/10, v/v) solutions (I=0.10 M NaCl, 0.05 M tris buffer, pH^* 7.9). In all cases the measured E1/2 was 170 mV more positive in methanolic than in aqueous solution and this value was used to predict the redox potential in aqueous solution from measurement in methanol/aqueous solution.

[3] = Ref 4, cited from earlier work

Substance: manganese(III) tetrakis(N-methylpyridinium-2-yl)porphyrin [Mn^III/IITM-2-PyP^5−4−]
- E1/2, V vs NHE [1]: −0.22 V vs NHE
- E1/2, V vs Ag/AgCl [2]: −0.12 V vs Ag/AgCl
- kcat, O2^− dismutation ([3]; 25° C.): 6.0 × 10^7a M^−1 s^−1
- SOD specific activity [3]: 8.500^a U/mg
